Literature values in US9932637B2, “Genetic polymorphisms associated with cardiovascular disorders and drug response, methods of detection and uses thereof” (CELERA CORPORATION, priority 2003, dated 2018).

System: subjects with average cholesterol levels
Details: AFCAPS/TexCAPS; cited from earlier work

Q: For `CC[C@H](C)C(=O)O[C@H]1C[C@@H](C)C=C2C=C[C@H](C)[C@H](CC[C@@H]3C[C@@H](O)CC(=O)O3)[C@H]21` [lovastatin], which “LDL-C reduced (average)” value is on record?
A: 25%

Q: And the events decreased?
A: 37%
